From US20120245137A1 (Zalicus Pharmaceuticals Ltd., priority 2009, published 2012) come the findings set out here.

Assay type in all cases: cell-based
The target in assay [1] is human α1H T-type channels (Homo sapiens, UniProt O95180). In words: T-type calcium channel block, whole cell patch clamp, α1H. The conditions noted are these: HEK cells stably expressing human α1H; mainly non-inactivated protocol; values above 10,000 nM represented as 10000. The method, boiled down: (§1)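 Read-out: current block in whole-cell patch clamp of HEK 293 cells stably expressing human α1G or α1H subunits. Compounds were perfused locally in external solution (0.1-0.01% DMSO) under resting and inactivating voltage protocols.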
(The patch-clamp technique gives a direct electrical read-out from membranes.)

Assay [2] has as its target N-type calcium channel subunits (α1B, α2δ, and β3a) (Homo sapiens, UniProt Q00975). In words: Block of Cav2.2 channel, whole cell voltage clamp, manual and PatchXpress. The note with it: Table 5; table follows Assay Example 3 (whole cell voltage clamp / PatchXpress); assay not given. The method, boiled down:
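Percent block taken as current amplitude ratio with versus without compound, applied in rising doses; IC50 fitted where one cell received multiple doses. Protocol: 50 ms pulses to +20 mV at 0.067 Hz from […] or −90 mV holding; P/n leak subtraction, no junction-potential correction; manual and PatchXpress recordings.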

For assay [3], the target named is human α1G T-type channels (Homo sapiens, UniProt O43497). In words: T-type calcium channel block, whole cell patch clamp, α1G. The note with it: HEK cells stably expressing human α1G; mainly non-inactivated protocol; values above 10,000 nM represented as 10000. The method, boiled down: as §1
Chain of human α1G T-type channels (O43497 whole entry): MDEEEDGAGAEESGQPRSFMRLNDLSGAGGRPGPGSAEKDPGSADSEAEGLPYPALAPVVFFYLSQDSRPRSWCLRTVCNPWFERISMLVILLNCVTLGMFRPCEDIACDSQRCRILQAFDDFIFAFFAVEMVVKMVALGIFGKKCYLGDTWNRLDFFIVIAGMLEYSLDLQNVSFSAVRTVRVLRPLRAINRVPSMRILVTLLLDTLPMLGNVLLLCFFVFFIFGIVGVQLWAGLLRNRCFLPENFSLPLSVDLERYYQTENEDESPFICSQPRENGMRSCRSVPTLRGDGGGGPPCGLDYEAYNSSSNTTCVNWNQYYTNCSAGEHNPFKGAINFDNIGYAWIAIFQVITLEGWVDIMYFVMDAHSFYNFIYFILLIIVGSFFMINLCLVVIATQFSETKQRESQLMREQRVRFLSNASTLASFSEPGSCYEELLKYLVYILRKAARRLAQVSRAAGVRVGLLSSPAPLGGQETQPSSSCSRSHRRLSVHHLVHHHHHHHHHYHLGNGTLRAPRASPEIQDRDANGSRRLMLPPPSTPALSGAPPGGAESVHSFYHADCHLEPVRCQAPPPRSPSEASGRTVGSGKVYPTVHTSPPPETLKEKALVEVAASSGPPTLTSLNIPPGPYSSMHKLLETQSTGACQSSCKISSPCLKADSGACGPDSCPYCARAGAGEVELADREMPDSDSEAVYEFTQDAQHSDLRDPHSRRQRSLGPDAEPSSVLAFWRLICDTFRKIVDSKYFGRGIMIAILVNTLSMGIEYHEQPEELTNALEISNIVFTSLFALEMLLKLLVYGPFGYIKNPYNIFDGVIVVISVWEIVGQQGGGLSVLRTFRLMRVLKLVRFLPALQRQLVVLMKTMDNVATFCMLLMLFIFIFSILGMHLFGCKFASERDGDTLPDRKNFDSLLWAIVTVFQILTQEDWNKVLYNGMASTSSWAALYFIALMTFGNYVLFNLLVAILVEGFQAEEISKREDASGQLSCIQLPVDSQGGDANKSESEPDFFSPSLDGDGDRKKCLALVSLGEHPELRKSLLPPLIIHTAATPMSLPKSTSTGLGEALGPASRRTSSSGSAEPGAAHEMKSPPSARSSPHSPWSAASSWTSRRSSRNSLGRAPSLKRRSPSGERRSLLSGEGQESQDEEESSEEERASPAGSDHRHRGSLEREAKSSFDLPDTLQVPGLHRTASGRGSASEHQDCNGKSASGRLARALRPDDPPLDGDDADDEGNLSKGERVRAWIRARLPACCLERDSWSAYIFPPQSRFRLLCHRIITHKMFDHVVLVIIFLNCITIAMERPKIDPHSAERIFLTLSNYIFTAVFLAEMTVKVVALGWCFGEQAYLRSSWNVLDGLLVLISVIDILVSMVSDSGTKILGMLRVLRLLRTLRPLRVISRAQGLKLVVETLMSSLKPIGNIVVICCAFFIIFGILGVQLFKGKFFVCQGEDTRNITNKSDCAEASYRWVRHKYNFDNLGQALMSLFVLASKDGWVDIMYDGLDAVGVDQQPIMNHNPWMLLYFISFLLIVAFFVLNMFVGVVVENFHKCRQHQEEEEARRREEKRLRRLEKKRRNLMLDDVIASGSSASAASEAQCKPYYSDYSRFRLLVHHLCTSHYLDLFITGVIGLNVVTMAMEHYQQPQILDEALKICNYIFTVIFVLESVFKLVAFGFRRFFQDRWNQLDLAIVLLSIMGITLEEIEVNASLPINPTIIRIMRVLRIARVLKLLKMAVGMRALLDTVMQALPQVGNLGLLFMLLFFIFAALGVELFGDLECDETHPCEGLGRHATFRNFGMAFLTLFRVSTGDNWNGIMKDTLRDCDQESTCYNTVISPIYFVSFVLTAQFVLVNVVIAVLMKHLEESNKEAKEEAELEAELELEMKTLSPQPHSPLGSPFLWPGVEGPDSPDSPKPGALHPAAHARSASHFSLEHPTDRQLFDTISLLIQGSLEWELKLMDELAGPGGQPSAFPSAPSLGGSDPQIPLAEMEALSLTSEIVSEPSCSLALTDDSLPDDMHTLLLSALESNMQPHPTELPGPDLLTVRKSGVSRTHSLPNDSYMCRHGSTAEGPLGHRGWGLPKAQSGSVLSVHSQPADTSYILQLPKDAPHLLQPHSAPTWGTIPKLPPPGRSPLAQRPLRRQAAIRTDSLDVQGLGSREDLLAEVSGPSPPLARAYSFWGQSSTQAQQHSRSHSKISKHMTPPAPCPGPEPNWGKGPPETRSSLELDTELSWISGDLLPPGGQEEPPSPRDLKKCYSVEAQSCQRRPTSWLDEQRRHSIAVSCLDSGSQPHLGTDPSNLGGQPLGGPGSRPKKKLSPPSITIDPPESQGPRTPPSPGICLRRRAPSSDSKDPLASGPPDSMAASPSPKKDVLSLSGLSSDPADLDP

Chain of human α1H T-type channels (O95180 whole entry, the tested form may be a part): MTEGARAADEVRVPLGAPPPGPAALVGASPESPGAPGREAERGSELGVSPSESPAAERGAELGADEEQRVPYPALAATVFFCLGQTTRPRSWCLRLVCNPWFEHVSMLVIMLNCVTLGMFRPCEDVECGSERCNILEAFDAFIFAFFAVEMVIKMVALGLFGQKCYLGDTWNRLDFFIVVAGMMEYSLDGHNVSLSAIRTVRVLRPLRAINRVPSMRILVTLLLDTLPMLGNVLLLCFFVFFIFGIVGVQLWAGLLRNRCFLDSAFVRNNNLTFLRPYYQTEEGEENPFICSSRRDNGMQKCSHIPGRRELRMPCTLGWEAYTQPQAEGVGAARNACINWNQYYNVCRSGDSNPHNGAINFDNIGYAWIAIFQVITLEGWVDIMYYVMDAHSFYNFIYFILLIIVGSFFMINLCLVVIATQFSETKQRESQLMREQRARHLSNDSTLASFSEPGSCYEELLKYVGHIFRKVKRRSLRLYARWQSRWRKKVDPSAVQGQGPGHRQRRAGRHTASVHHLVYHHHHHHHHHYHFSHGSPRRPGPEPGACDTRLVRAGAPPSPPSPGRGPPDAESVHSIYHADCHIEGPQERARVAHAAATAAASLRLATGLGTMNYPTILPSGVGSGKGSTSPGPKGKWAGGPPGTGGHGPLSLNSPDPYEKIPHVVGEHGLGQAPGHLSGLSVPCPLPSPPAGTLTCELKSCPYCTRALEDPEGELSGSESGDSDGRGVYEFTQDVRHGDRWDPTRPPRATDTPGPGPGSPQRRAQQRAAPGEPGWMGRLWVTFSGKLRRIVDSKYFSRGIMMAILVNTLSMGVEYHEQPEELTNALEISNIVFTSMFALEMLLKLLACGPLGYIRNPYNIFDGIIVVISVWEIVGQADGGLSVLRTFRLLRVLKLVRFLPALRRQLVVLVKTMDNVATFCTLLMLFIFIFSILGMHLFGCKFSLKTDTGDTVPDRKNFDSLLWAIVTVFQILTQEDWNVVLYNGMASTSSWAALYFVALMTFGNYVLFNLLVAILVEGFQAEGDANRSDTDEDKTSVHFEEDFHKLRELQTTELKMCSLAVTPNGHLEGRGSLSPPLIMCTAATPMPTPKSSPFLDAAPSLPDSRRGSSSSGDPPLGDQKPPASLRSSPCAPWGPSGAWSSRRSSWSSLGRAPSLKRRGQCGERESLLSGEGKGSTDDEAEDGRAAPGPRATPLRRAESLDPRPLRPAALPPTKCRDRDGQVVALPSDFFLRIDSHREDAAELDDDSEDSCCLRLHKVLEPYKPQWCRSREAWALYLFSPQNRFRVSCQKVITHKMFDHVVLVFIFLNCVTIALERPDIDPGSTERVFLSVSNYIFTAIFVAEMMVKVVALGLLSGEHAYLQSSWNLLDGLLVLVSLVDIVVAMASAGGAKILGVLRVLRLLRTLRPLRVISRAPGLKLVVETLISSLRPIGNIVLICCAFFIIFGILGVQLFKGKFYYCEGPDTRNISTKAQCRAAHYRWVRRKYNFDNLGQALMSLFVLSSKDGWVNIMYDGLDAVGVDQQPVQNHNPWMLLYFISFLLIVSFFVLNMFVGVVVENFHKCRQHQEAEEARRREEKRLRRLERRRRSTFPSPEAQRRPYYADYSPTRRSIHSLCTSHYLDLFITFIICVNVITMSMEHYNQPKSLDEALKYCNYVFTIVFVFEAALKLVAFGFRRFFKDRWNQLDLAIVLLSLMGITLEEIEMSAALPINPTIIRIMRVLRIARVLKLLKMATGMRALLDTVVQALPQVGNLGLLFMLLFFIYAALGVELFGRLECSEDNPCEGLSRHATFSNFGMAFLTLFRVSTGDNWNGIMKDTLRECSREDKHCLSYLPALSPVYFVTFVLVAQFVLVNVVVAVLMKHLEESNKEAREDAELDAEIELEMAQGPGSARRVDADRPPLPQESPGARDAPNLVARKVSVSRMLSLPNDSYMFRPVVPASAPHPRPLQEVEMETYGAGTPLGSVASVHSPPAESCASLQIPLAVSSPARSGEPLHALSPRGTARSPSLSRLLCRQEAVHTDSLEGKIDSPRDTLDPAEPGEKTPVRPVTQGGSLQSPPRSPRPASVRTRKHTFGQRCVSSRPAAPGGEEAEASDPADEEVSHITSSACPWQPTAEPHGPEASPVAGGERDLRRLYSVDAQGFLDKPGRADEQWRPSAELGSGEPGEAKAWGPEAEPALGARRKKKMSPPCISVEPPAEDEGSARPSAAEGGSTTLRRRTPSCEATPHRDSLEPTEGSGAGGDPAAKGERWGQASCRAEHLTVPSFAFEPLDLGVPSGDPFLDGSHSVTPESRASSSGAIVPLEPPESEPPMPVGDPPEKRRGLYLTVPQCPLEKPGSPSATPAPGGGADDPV

For `CS(=O)(=O)c1cc(Cl)ccc1C(=O)NC[C@H]1C[C@H](S(=O)(=O)c2cccc(C(F)(F)F)c2)C1` [Compound 368, 4-chloro-2-(methylsulfonyl)-N-(((1R,3R)3-(3-(trifluoromethyl)phenylsulfonyl)cyclobutyl)methyl)benzamide], the IC50 in assay [1] was found to be 400 nM; in assay [2] it was 940 nM; in assay [3], 950 nM.
The matching figures for `O=C(CCC(F)(F)F)N[C@H]1CC[C@@](F)(S(=O)(=O)c2cccc(C(F)(F)F)c2)CC1` [Compound 274, 4,4,4-trifluoro-N-((1S,4S)-4-fluoro-4-(3-(trifluoromethyl)phenylsulfonyl)cyclohexyl)butanamide]: 1050 nM, 530 nM and 2540 nM.
In the same order, the values of `O=C(Nc1cccc(C(F)(F)F)n1)[C@H]1C[C@@H](S(=O)(=O)c2cccc(C(F)(F)F)c2)C1` [Compound 412, (1S,3S)-3-(3-(trifluoromethyl)phenylsulfonyl)-N-(6-(trifluoromethyl)pyridin-2-yl)cyclobutanecarboxamide] are 1550 nM, 590 nM and 6810 nM.
As for `O=C(N[C@H]1C[C@H](CS(=O)(=O)c2cccc(C(F)(F)F)c2)C1)c1ccc(Cl)c(F)c1` [Compound 343, 4-chloro-3-fluoro-N-((1R,3R)-3-((3-(trifluoromethyl)phenylsulfonyl)methyl)cyclobutyl)benzamide], the results for the IC50 in assay [1], in assay [2] and in assay [3] were 270 nM, 1450 nM and 630 nM, respectively.
Consider `O=C(N[C@H]1CC[C@@](F)(S(=O)(=O)c2cccc(C(F)(F)F)c2)CC1)C1Cc2ccccc2N1` (stereo partly drawn) [Compound 279, N-((1S,4S)-4-fluoro-4-(3-(trifluoromethyl)phenylsulfonyl)cyclohexyl) indoline-2-carboxamide], for which the results for the 50% inhibitory concentration (IC50) in assay [1], in assay [2] and in assay [3] were 2090 nM, 450 nM and more than 10000 nM, respectively.
In the case of `O=C(Nc1ccc(Oc2ccc(C(F)(F)F)nc2)nc1)[C@H]1C[C@H](S(=O)(=O)c2cccc(C(F)(F)F)c2)C1` [Compound 401, (1R,3R)-3-(3-(trifluoromethyl)phenylsulfonyl)-N-(6-(6-(trifluoromethyl)pyridin-3-yloxy)pyridin-3-yl) cyclobutanecarboxamide], the IC50 in assay [1] is 9260 nM; in assay [2], 1430 nM; in assay [3], more than 10000 nM.
For `O=C(N[C@H]1CC[C@](F)(S(=O)(=O)c2cccc(C(F)(F)F)c2)CC1)c1ccc(F)c(C(F)(F)F)c1` [Compound 83, 4-fluoro-N-((1R,4R)-4-fluoro-4-(3-(trifluoromethyl)phenylsulfonyl)cyclohexyl)-3-(trifluoromethyl)benzamide], the IC50 in assay [1] is 960 nM; in assay [2] it was 480 nM; in assay [3] it was 2850 nM.
In the same order, the values of `O=C(NC[C@H]1C[C@H](S(=O)(=O)c2cccc(C(F)(F)F)c2)C1)c1ccc(OC(F)(F)F)cc1` [Compound 373, 4-(trifluoromethoxy)-N-(((1R,3R)-3-(3-(trifluoromethyl)phenylsulfonyl)cyclobutyl)methyl)benzamide] are 610 nM, 250 nM and 820 nM.
The matching figures for `Cn1nc(C(F)(F)F)cc1NC(=O)[C@H]1C[C@H](S(=O)(=O)c2cccc(C(F)(F)F)c2)C1` [Compound 407, (1R,3R)-N-(1-methyl-3-(trifluoromethyl)-1H-pyrazol-5-yl)-3-(3-(trifluoromethyl)phenylsulfonyl) cyclobutanecarboxamide]: 1660 nM, 5630 nM and more than 10000 nM.
The matching figures for `COc1ccc(C(C)(C)NC(=O)[C@H]2C[C@H](S(=O)(=O)c3cccc(C(F)(F)F)c3)C2)cc1` [Compound 403, (1R,3R)-N-(2-(4-methoxyphenyl)propan-2-yl)-3-(3-(trifluoromethyl)phenylsulfonyl)cyclobutane carboxamide]: 1040 nM, 1460 nM and 1190 nM.
For the compound `CC1(NC(=O)c2ccc(F)c(C(F)(F)F)c2)CCC(F)(S(=O)(=O)c2cccc(C(F)(F)F)c2)CC1` (stereo not drawn) [Compound 92, 4-fluoro-N-(4-fluoro-1-methyl-4-(3-(trifluoromethyl)phenylsulfonyl)cyclohexyl)-3-(trifluoromethyl)benzamide], the IC50 in assay [1] was found to be 640 nM; in assay [2] it was 330 nM; in assay [3] it was 2230 nM.
The matching figures for `COc1cc(F)cc(C(=O)N[C@H]2CC[C@@H](CS(=O)(=O)c3cccc(C(F)(F)F)c3)CC2)c1` [Compound 136, 3-fluoro-5-methoxy-N-((1S,4S)-4-((3-(trifluoromethyl)phenylsulfonyl)methyl)cyclohexyl)benzamide]: 550 nM, 440 nM and 540 nM.
The matching figures for `O=C(N[C@H]1CC[C@@H](CS(=O)(=O)c2cccc(C(F)(F)F)c2)CC1)c1ccc(Cl)c(OC(F)(F)F)c1` [Compound 139, 4-chloro-3-(trifluoromethoxy)-N-((1S,4S)-4-((3-(trifluoromethyl)phenylsulfonyl)methyl)cyclohexyl)benzamide]: 1020 nM, 390 nM and 1880 nM.
Consider `COc1ccc(C2(C(=O)N[C@H]3CC[C@@](F)(S(=O)(=O)c4cccc(C(F)(F)F)c4)CC3)CC2)cc1` [Compound 276, N-((1S,4S)-4-fluoro-4-(3-(trifluoromethyl)phenylsulfonyl)cyclohexyl)-1-(4-methoxyphenyl) cyclopropanecarboxamide], for which the IC50 in assay [1] is 2300 nM; in assay [2], 380 nM; in assay [3], more than 10000 nM.
In the same order, the values of `O=C1c2cc(C(F)(F)F)nn2CCN1[C@H]1CC[C@@](F)(S(=O)(=O)c2cc(F)cc(C(F)(F)F)c2)CC1` [Compound 333, 5-((1S,4S)-4-fluoro-4-(3-fluoro-5-(trifluoromethyl)phenylsulfonyl)cyclohexyl)-2-(trifluoromethyl)-6,7-dihydropyrazolo[l,5-a]pyrazin-4(5H)-one] are 960 nM, 180 nM and 1820 nM.
In the same order, the values of `O=C(N[C@H]1CC[C@@](F)(S(=O)(=O)c2cccc(C(F)(F)F)c2)CC1)c1cc(F)cc(Cl)c1` [Compound 86, 3-chloro-5-fluoro-N-((1S,4S)-4-fluoro-4-(3-(trifluoromethyl)phenylsulfonyl)cyclohexyl)benzamide] are 1930 nM, 190 nM and more than 10000 nM.
For the compound `O=C(N[C@H]1CC[C@@H](S(=O)(=O)c2cccc(C(F)(F)F)c2)CC1)c1ccc(OCC(F)(F)F)nc1` [Compound 197, 6-(2,2,2-trifluoroethoxy)-N-((1S,4S)-4-(3-(trifluoromethyl)phenylsulfonyl)cyclohexyl)nicotinamide], the figures for the IC50 in assay [1], in assay [2] and in assay [3] were 5660 nM, 470 nM and more than 10000 nM, respectively.
The matching figures for `O=C(NC1CCC(S(=O)(=O)c2cccc(C(F)(F)F)c2)CC1)c1ccc(C(F)(F)F)cn1` (stereo not drawn) [Compound 10, 5-(trifluoromethyl)-N-(4-(3-(trifluoromethyl)phenylsulfonyl)cyclohexyl)picolinamide]: 3820 nM, 1460 nM and 4200 nM.
The matching figures for `CS(=O)(=O)c1cc(C(=O)N[C@H]2CC[C@@](F)(S(=O)(=O)c3cccc(C(F)(F)F)c3)CC2)cc(C(F)(F)F)n1` [Compound 273, N-((1R,4R)-4-fluoro-4-(3-(trifluoromethyl)phenylsulfonyl)cyclohexyl)-2-(methylsulfonyl)-6-(trifluoromethyl)isonicotinamide]: more than 10000 nM, 430 nM and more than 10000 nM.
In the same order, the values of `O=C(Nc1cc(C(F)(F)F)ccn1)[C@H]1C[C@@H](S(=O)(=O)c2cccc(C(F)(F)F)c2)C1` [Compound 410, (1S,3S)-3-(3-(trifluoromethyl)phenylsulfonyl)-N-(4-(trifluoromethyl)pyridin-2-yl)cyclobutanecarboxamide] are 1790 nM, 1240 nM and 3490 nM.
Regarding `O=C(N[C@H]1CC[C@](F)(S(=O)(=O)c2cccc(C(F)(F)F)c2)CC1)c1cc(C(F)(F)F)ccn1` [Compound 79, N-((1R,4R)-4-fluoro-4-(3-(trifluoromethyl)phenylsulfonyl)cyclohexyl)-4-(trifluoromethyl)picolinamide], the IC50 in assay [1] was determined as 440 nM; in assay [2], 630 nM; in assay [3], 1190 nM.
In the same order, the values of `O=C(N[C@H]1CC[C@@](F)(S(=O)(=O)c2cccc(OC(F)(F)F)c2)CC1)c1cc(F)cc(Cl)c1` [Compound 251] are 570 nM, 150 nM and 3590 nM.
In the case of `O=C(N[C@H]1CC[C@](F)(S(=O)(=O)c2cccc(C(F)(F)F)c2)CC1)c1nc2cc(C(F)(F)F)ccc2[nH]1` [Compound 80, N-((1R,4R)-4-fluoro-4-(3-(trifluoromethyl)phenylsulfonyl)cyclohexyl)-5-(trifluoromethyl)-1H-benzo[d]imidazole-2-carboxamide], the 50% inhibitory concentration (IC50) was determined as 460 nM in assay [1], 4310 nM in assay [2] and 900 nM in assay [3].

The IC50 is the concentration at which inhibition is half-maximal.
